This experiment deals with T1, SOS1 protein (Homo sapiens, UniProt Q07889).
T1 sequence (Q07889 1-1333): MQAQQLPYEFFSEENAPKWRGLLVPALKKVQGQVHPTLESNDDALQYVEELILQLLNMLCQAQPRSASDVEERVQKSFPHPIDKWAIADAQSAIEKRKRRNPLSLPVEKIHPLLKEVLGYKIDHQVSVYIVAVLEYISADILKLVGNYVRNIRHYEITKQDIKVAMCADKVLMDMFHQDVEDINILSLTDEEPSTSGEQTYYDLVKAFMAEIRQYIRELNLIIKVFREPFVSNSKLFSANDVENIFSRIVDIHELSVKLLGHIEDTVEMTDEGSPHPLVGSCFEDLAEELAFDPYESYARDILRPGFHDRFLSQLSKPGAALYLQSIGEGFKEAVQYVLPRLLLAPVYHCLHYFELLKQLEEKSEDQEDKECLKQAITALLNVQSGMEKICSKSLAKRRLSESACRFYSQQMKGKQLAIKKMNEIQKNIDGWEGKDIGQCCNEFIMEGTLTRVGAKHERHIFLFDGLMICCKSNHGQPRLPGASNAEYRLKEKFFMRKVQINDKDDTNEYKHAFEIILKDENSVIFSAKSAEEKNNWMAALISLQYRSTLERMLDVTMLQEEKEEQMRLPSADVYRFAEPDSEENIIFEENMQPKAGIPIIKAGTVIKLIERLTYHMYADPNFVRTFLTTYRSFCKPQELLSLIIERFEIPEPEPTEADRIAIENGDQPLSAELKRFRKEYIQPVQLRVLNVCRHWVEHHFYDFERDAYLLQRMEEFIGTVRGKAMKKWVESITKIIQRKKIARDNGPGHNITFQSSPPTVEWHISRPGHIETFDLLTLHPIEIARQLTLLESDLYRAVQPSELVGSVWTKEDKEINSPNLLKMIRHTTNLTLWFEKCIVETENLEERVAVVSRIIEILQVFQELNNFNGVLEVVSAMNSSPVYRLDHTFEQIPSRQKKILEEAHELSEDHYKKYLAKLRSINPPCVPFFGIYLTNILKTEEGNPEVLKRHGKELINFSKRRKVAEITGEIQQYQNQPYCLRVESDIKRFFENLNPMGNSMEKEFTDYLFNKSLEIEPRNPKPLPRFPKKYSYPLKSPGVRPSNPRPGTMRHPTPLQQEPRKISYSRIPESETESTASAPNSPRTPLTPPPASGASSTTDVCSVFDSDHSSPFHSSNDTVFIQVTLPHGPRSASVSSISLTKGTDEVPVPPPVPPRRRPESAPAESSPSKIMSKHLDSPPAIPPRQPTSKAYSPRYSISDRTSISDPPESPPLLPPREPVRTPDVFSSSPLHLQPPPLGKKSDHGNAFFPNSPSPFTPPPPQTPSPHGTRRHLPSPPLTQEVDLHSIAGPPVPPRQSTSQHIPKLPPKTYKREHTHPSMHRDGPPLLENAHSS
The experiment can be described thus: SOS1 degradation assay (Western blot) in DLD-1 cells. The note with it: DLD-1 (KRAS G13D), 24 h. Type of experiment: cell-based. On the set-up: host or cells: NCI-H358, A-427, SW-620, DLD-1 (human cancer cell lines). As to the method: Test Example 2: SOS1 Degradation Assay
The degradation of SOS1 by the compounds was investigated on KRAS G12C mutant human non-small cell lung cancer cells NCI-H358 (ATCC or Stem Cell Bank, Chinese Academy of Sciences), KRAS G12D mutant human lung cancer cells A-427 (ATCC), KRAS G12V mutant human colorectal adenocarcinoma cells SW-620 (ATCC), and KRAS G13D mutant human colorectal adenocarcinoma epithelial cells DLD-1 (ATCC). The specific procedures were as follows:
0.95 mL of cells were seeded into each well of a 24-well cell culture plate to achieve a cell density of 5×10^5 cells/well; the cell plate was incubated in an incubator at 37° C. with 5% CO2 overnight. Then 50 μL of the compound solution after dilution was added to each of the wells with the corresponding cells, so that the final concentration of the compound was in a range of 0.03-3000 nM. The final concentration of DMSO was 0.25%.
After dosing, the cell plate was incubated in an incubator at 37° C. with 5% CO2 for 24 h. The cell culture medium in the 24-well plate was removed, and the plate was washed twice with 1×PBS. 180 μL of RIPA (strong) lysis buffer (Beyotime, P0013B) supplemented with 1 mM phenylmethylsulfonyl fluoride, a protease inhibitor mixture (Beyotime, P1008), and a protease phosphatase inhibitor mixture (Beyotime, P1045) was added to lyse adherent NCI-H358 cells at the bottom of the cell culture plate. After the plate was left to stand on ice for 30 min, the protein lysate in each well was transferred to a 1.5 mL centrifuge tube and centrifuged at 15000 g for 20 min at 4° C. […] The concentration of total protein in the cell lysate supernatant was determined using the BCA Protein Quantification Kit (Tiangen, PA115-02). […]
The concentration of total protein in the cell lysate was determined by BCA. […] After the blocking, the PVDF membrane was incubated with an SOS1 primary antibody (Abcam, ab140621) at 4° C. overnight, washed with a TBST buffer (2.4 g of Tris, 8.8 g of NaCl, 1.5 mL of Tween 20, with pH adjusted to 7.4, with the volume brought to 1 L) for 30 min (10 min/time), incubated with a secondary antibody (Abcam, ab205718) at room temperature for 2 h, washed with a TBST buffer for 30 min (10 min/time), and finally incubated with Clarity Western ECL Substrate (BIO-RAD, 170-5061) for 5 min for luminescence and color development, and a chemiluminescence imaging system (Clinx, ChemiScope 6200 Touch) was used for color development and protein mapping. […] The gray correction value for each sample was calculated by the formula: gray correction value=(gray value of target protein/gray value of corresponding internal reference)×103. Then the degradation rate was calculated by comparing the gray correction value with the gray correction value of the control group. […]
(In western blotting, separated proteins are transferred to a membrane and probed.)

Structures are written as SMILES.

For orientation: DC50 means the midpoint of the concentration-degradation curve. A low value points to degradation at low concentration. As usually defined, the Dmax is the greatest extent of degradation seen. A higher Dmax goes with deep degradation. `COc1cc2nc(C)nc(N[C@H](C)c3cc(-c4c(Cl)cccc4CN(C)C)cs3)c2cc1[C@H]1CC[C@H](C(=O)N2CCN(CC3CCC4(CC3)CCN(C(=O)c3ccc(Cl)c(N5CCC(=O)NC5=O)c3)CC4)CC2)CC1` [Example 1, 1-(2-chloro-5-(9-((4-((1R,4R)-4-(4-(((R)-1-(4-(2-chloro-6-((dimethylamino)methyl)phenyl)thien-2-yl)ethyl)amino)-7-methoxy-2-methylquinazolin-6-yl)cyclohexane-1-carbonyl)piperazin-1-yl)methyl)-3-azaspiro[5.5]undecane-3-carbonyl)phenyl)dihydropyrimidine-2,4(1H,3H)-dione] registered a DC50 not above 50 nM and a Dmax of 80 to 100%.
Taken in the same sequence, the figures for `COc1cc2nc(C)nc(N[C@H](C)c3cc(-c4c(Cl)cccc4CN(C)C)cs3)c2cc1[C@H]1CC[C@H](C(=O)N2CCC(CCOCC3CCN(C(=O)c4ccc(Cl)c(N5CCC(=O)NC5=O)c4)CC3)CC2)CC1` [Example 5, 1-(2-chloro-5-(4-((2-(1-((1R,4R)-4-(4-(((R)-1-(4-(2-chloro-6-((dimethylamino)methyl)phenyl)thien-2-yl)ethyl)amino)-7-methoxy-2-methylquinazolin-6-yl)cyclohexane-1-carbonyl)piperidin-4-yl)ethoxy)methyl)piperidine-1-carbonyl)phenyl)dihydropyrimidine-2,4(1H,3H)-dione] were not above 50 nM and 80 to 100%.
